From US20180139987A1, “PHARMACEUTICAL POWDER COMPOSITION AND ITS USE IN THE CONTROL OF POST-PRANDIAL GLYCAEMIC PROFILE” (OMNIBLEND INNOVATION PTY LTD, priority 2015, published 2018)

How the values were obtained:
Healthy Participant = experiment: Post-prandial glycemic profile (finger-prick blood sugar) after white rice breakfast, healthy participant; assay type: in vivo, human; conditions: HP2 healthy participant, 125 g white rice
Description: 125 g microwaveable white rice (details, amount of available carbohydrate?) was eaten together with a cup of water. Finger-prick blood sugar readings were taken before consumption of the standard meal in the morning (i.e. the standard meal was breakfast). Two readings were taken and the average value was used as the blood sugar reading. After consumption of the meal, another blood sugar reading was taken. Further blood sugar readings were taken at 15-minute intervals thereafter. A subject (HP2, Healthy Participant) was given a standard white rice breakfast, containing 125 g cooked white rice (example A3), and was tested for post-prandial glycemic profile-this was the first control glycemic profile. […] This was the third control glycemic profile. On another day, the same subject was given the acarbose-containing pre-meal drink described in example A1 (this drink is prepared according to the invention). This was the test glycemicsrofile.

[1] = tested on: subject with type 2 diabetes; experiment: Post-prandial glycemic profile (finger-prick blood sugar) after white rice breakfast, subjects with type 2 diabetes; assay type: in vivo, human
Protocol: 160 g microwaveable white rice (details, amount of available carbohydrate?) was eaten together with a cup of water.
240 g microwaveable white rice (Uncle Bens Brand Microwavable White Rice, […] of available carbohydrate) and 200 ml of hot tea.
Finger-prick blood sugar readings were taken before consumption of the standard meal in the morning (i.e. the standard meal was breakfast). Two readings were taken and the average value was used as the blood sugar reading. After consumption of the meal, another blood sugar reading was taken. Further blood sugar readings were taken at 15-minute intervals thereafter.
A subject with type 2 diabetes (T2D1, person) was given a standard white rice breakfast (Example A2) and was tested for post-prandial glycemic profile—this was the first control glycemic profile. […] This was the third control glycemic profile. […] This was the test glycemic profile. […]
A subject with type 2 diabetes (T2D5, person) was given a standard white rice breakfast (Example A2) and was tested for post-prandial glycemic profile—this was the first control glycemic profile. […] This was the third control glycemic profile. […] This was the test glycemic profile.
This was the second glycemic test profile.
This was the second test glycemic profile.
This was the first glycemic test profile.

[2] = tested on: subject with type 2 diabetes; experiment: Post-prandial glycemic profile (finger-prick blood sugar) after white bread breakfast, subjects with type 2 diabetes; assay type: in vivo, human
Description: 2 slices of thick-cut savoury white bread spread with 29 g jam (over both slices) were eaten together with a cup of tea or coffee. A total available carbohydrate per serve was 50 g. 2 slices of thick-cut savoury white bread spread with 29 g jam (over both slices) were eaten together with a cup of tea or coffee. […] A total available carbohydrate per serve was 50 g. Finger-prick blood sugar readings were taken before consumption of the standard meal in the morning (i.e. the standard meal was breakfast). Two readings were taken and the average value was used as the blood sugar reading. After consumption of the meal, another blood sugar reading was taken. Further blood sugar readings were taken at 15-minute intervals thereafter. […] This was the first glycemic test profile. […] This was the second glycemic test profile. […] This was the first test glycemic profile. […] This was the second glycemic test profile.

patients = conditions: 1255 patients, Acarbose tablets 50-300 mg t.i.d.; cited from earlier work

C[C@H]1O[C@H](O[C@H]2[C@H](O)[C@@H](O)[C@@H](O[C@H]3[C@H](O)[C@@H](O)C(O)O[C@@H]3CO)O[C@@H]2CO)[C@H](O)[C@@H](O)[C@@H]1N[C@H]1C=C(CO)[C@@H](O)[C@H](O)[C@H]1O (stereo partly shown) [acarbose]
glycemic profile (mM blood glucose) (Healthy Participant; time after eating 0 min): 6.03 mM
glycemic profile (mM blood glucose) (Healthy Participant; time after eating 15 min): 6.4 mM
glycemic profile (mM blood glucose) (Healthy Participant; time after eating 30 min): 7.04 mM
glycemic profile (mM blood glucose) (Healthy Participant; time after eating 45 min): 6.75 mM
glycemic profile (mM blood glucose) (Healthy Participant; time after eating 60 min): 5.9 mM
glycemic profile (mM blood glucose) (Healthy Participant; time after eating 75 min): 6.1 mM
glycemic profile (mM blood glucose) (Healthy Participant; time after eating 90 min): 6.175 mM
glycemic profile (mM blood glucose) (Healthy Participant; time after eating 105 min): 5.8 mM
glycemic profile (mM blood glucose) (Healthy Participant; time after eating 120 min): 6.3 mM
glycemic profile (mM blood glucose) (Healthy Participant; time after eating 135 min): 6.23 mM
glycemic profile (mM blood glucose) (Healthy Participant; time after eating −15 min): 5.65 mM
glycemic profile (mM blood glucose) ([1]; T2D1, 240 g white rice (Example B3), time after eating 30 min): 9.32 mM
glycemic profile (mM blood glucose) ([1]; T2D1, 240 g white rice (Example B3), time after eating 60 min): 10.4 mM
glycemic profile (mM blood glucose) ([1]; T2D1, 240 g white rice (Example B3), time after eating 75 min): 11.0 mM
glycemic profile (mM blood glucose) ([1]; T2D1, 240 g white rice (Example B3), time after eating 90 min): 10.8 mM
glycemic profile (mM blood glucose) ([1]; T2D1, 240 g white rice (Example B3), time after eating 105 min): 11 mM
glycemic profile (mM blood glucose) ([1]; T2D1, 240 g white rice (Example B3), time after eating 120 min): 10.4 mM
glycemic profile (mM blood glucose) ([1]; T2D1, 240 g white rice (Example B3), time after eating 135 min): 10.4 mM
glycemic profile (mM blood glucose) ([1]; T2D1, 240 g white rice (Example B3), time after eating 165 min): 9.45 mM
glycemic profile (mM blood glucose) ([1]; T2D1, 240 g white rice (Example B3), time after eating 180 min): 9.66 mM
glycemic profile (mM blood glucose) ([1]; T2D1, 240 g white rice (Example B3), time after eating −25 min): 7.3 mM
glycemic profile (mM blood glucose) ([1]; T2D1, 240 g white rice (Example B7), time after eating 30 min): 9.32 mM
glycemic profile (mM blood glucose) ([1]; T2D1, 240 g white rice (Example B7), time after eating 60 min): 10.4 mM
glycemic profile (mM blood glucose) ([1]; T2D1, 240 g white rice (Example B7), time after eating 75 min): 11.0 mM
glycemic profile (mM blood glucose) ([1]; T2D1, 240 g white rice (Example B7), time after eating 90 min): 10.8 mM
glycemic profile (mM blood glucose) ([1]; T2D1, 240 g white rice (Example B7), time after eating 105 min): 11 mM
glycemic profile (mM blood glucose) ([1]; T2D1, 240 g white rice (Example B7), time after eating 120 min): 10.4 mM
glycemic profile (mM blood glucose) ([1]; T2D1, 240 g white rice (Example B7), time after eating 135 min): 10.4 mM
glycemic profile (mM blood glucose) ([1]; T2D1, 240 g white rice (Example B7), time after eating 165 min): 9.45 mM
glycemic profile (mM blood glucose) ([1]; T2D1, 240 g white rice (Example B7), time after eating 180 min): 9.66 mM
glycemic profile (mM blood glucose) ([1]; T2D1, 240 g white rice (Example B7), time after eating −25 min): 7.3 mM
glycemic profile (mM blood glucose) ([1]; T2D1, standard white rice breakfast (Example A2, 160 g), time after eating 45 min): 9.6 mM
glycemic profile (mM blood glucose) ([1]; T2D1, standard white rice breakfast (Example A2, 160 g), time after eating 60 min): 9.8 mM
glycemic profile (mM blood glucose) ([1]; T2D1, standard white rice breakfast (Example A2, 160 g), time after eating 75 min): 9.6 mM
glycemic profile (mM blood glucose) ([1]; T2D1, standard white rice breakfast (Example A2, 160 g), time after eating 90 min): 10.9 mM
glycemic profile (mM blood glucose) ([1]; T2D1, standard white rice breakfast (Example A2, 160 g), time after eating 105 min): 9.65 mM
glycemic profile (mM blood glucose) ([1]; T2D1, standard white rice breakfast (Example A2, 160 g), time after eating 120 min): 10.25 mM
glycemic profile (mM blood glucose) ([1]; T2D1, standard white rice breakfast (Example A2, 160 g), time after eating 135 min): 9.82 mM
glycemic profile (mM blood glucose) ([1]; T2D1, standard white rice breakfast (Example A2, 160 g), time after eating 150 min): 9.26 mM
glycemic profile (mM blood glucose) ([1]; T2D5, 240 g white rice (Example B2), time after eating 0 min): 7.4 mM
glycemic profile (mM blood glucose) ([1]; T2D5, 240 g white rice (Example B2), time after eating 30 min): 10.4 mM
glycemic profile (mM blood glucose) ([1]; T2D5, 240 g white rice (Example B2), time after eating 45 min): 10.1 mM
glycemic profile (mM blood glucose) ([1]; T2D5, 240 g white rice (Example B2), time after eating 60 min): 9.7 mM
glycemic profile (mM blood glucose) ([1]; T2D5, 240 g white rice (Example B2), time after eating 75 min): 9.95 mM
glycemic profile (mM blood glucose) ([1]; T2D5, 240 g white rice (Example B2), time after eating 165 min): 7.3 mM
glycemic profile (mM blood glucose) ([1]; T2D5, 240 g white rice (Example B2), time after eating 180 min): 6.5 mM
glycemic profile (mM blood glucose) ([1]; T2D5, 240 g white rice (Example B2), time after eating −10 min): 5.2 mM
glycemic profile (mM blood glucose) ([1]; T2D5, 240 g white rice (Example B2), time after eating −25 min): 5 mM
glycemic profile (mM blood glucose) ([1]; T2D5, 240 g white rice (Example B6), time after eating 0 min): 7.4 mM
glycemic profile (mM blood glucose) ([1]; T2D5, 240 g white rice (Example B6), time after eating 30 min): 10.4 mM
glycemic profile (mM blood glucose) ([1]; T2D5, 240 g white rice (Example B6), time after eating 45 min): 10.15 mM
glycemic profile (mM blood glucose) ([1]; T2D5, 240 g white rice (Example B6), time after eating 60 min): 9.76 mM
glycemic profile (mM blood glucose) ([1]; T2D5, 240 g white rice (Example B6), time after eating 75 min): 9.95 mM
glycemic profile (mM blood glucose) ([1]; T2D5, 240 g white rice (Example B6), time after eating 165 min): 7.3 mM
glycemic profile (mM blood glucose) ([1]; T2D5, 240 g white rice (Example B6), time after eating 180 min): 6.5 mM
glycemic profile (mM blood glucose) ([1]; T2D5, 240 g white rice (Example B6), time after eating −10 min): 5.2 mM
glycemic profile (mM blood glucose) ([1]; T2D5, 240 g white rice (Example B6), time after eating −25 min): 5 mM
peak glucose height, rise above baseline ([1]; T2D5, 240 g white rice, baselines of both profiles matched): 5.3 mmol/L
glycemic profile (mM blood glucose) ([2]; T2D5, 2 slices white bread + 29 g jam (Example B4), time after eating 0 min): 8.5 mM
glycemic profile (mM blood glucose) ([2]; T2D5, 2 slices white bread + 29 g jam (Example B4), time after eating 15 min): 9.3 mM
glycemic profile (mM blood glucose) ([2]; T2D5, 2 slices white bread + 29 g jam (Example B4), time after eating 30 min): 9.5 mM
glycemic profile (mM blood glucose) ([2]; T2D5, 2 slices white bread + 29 g jam (Example B4), time after eating 45 min): 9.65 mM
glycemic profile (mM blood glucose) ([2]; T2D5, 2 slices white bread + 29 g jam (Example B4), time after eating 60 min): 9.85 mM
glycemic profile (mM blood glucose) ([2]; T2D5, 2 slices white bread + 29 g jam (Example B4), time after eating 75 min): 9.6 mM
glycemic profile (mM blood glucose) ([2]; T2D5, 2 slices white bread + 29 g jam (Example B4), time after eating 90 min): 9.8 mM
glycemic profile (mM blood glucose) ([2]; T2D5, 2 slices white bread + 29 g jam (Example B4), time after eating 105 min): 9.35 mM
glycemic profile (mM blood glucose) ([2]; T2D5, 2 slices white bread + 29 g jam (Example B4), time after eating 120 min): 9.05 mM
glycemic profile (mM blood glucose) ([2]; T2D5, 2 slices white bread + 29 g jam (Example B4), time after eating 135 min): 7.65 mM
glycemic profile (mM blood glucose) ([2]; T2D5, 2 slices white bread + 29 g jam (Example B4), time after eating 150 min): 6.93 mM
glycemic profile (mM blood glucose) ([2]; T2D5, 2 slices white bread + 29 g jam (Example B4), time after eating 165 min): 6.55 mM
glycemic profile (mM blood glucose) ([2]; T2D5, 2 slices white bread + 29 g jam (Example B4), time after eating 180 min): 5.35 mM
glycemic profile (mM blood glucose) ([2]; T2D5, 2 slices white bread + 29 g jam (Example B4), time after eating −10 min): 6.5 mM
glycemic profile (mM blood glucose) ([2]; T2D5, 2 slices white bread + 29 g jam (Example B4), time after eating −25 min): 6.25 mM
glycemic profile (mM blood glucose) ([2]; T2D9, 2 slices white bread + 29 g jam (Example B5), time after eating 0 min): 11.8 mM
glycemic profile (mM blood glucose) ([2]; T2D9, 2 slices white bread + 29 g jam (Example B5), time after eating 15 min): 12.8 mM
glycemic profile (mM blood glucose) ([2]; T2D9, 2 slices white bread + 29 g jam (Example B5), time after eating 30 min): 11.6 mM
glycemic profile (mM blood glucose) ([2]; T2D9, 2 slices white bread + 29 g jam (Example B5), time after eating 45 min): 11.3 mM
glycemic profile (mM blood glucose) ([2]; T2D9, 2 slices white bread + 29 g jam (Example B5), time after eating 60 min): 11.4 mM
glycemic profile (mM blood glucose) ([2]; T2D9, 2 slices white bread + 29 g jam (Example B5), time after eating 75 min): 11.1 mM
glycemic profile (mM blood glucose) ([2]; T2D9, 2 slices white bread + 29 g jam (Example B5), time after eating 90 min): 10.4 mM
glycemic profile (mM blood glucose) ([2]; T2D9, 2 slices white bread + 29 g jam (Example B5), time after eating 105 min): 11.0 mM
glycemic profile (mM blood glucose) ([2]; T2D9, 2 slices white bread + 29 g jam (Example B5), time after eating 120 min): 11.8 mM
glycemic profile (mM blood glucose) ([2]; T2D9, 2 slices white bread + 29 g jam (Example B5), time after eating 135 min): 11.2 mM
glycemic profile (mM blood glucose) ([2]; T2D9, 2 slices white bread + 29 g jam (Example B5), time after eating 150 min): 11.8 mM
glycemic profile (mM blood glucose) ([2]; T2D9, 2 slices white bread + 29 g jam (Example B5), time after eating 165 min): 12.9 mM
glycemic profile (mM blood glucose) ([2]; T2D9, 2 slices white bread + 29 g jam (Example B5), time after eating 180 min): 10.2 mM
glycemic profile (mM blood glucose) ([2]; T2D9, 2 slices white bread + 29 g jam (Example B5), time after eating −10 min): 9.9 mM
glycemic profile (mM blood glucose) ([2]; T2D9, 2 slices white bread + 29 g jam (Example B5), time after eating −25 min): 10.4 mM
incidence of abdominal pain (patients): 19%
incidence of diarrhea (patients): 31%
incidence of flatulence (patients): 74%
